# Reference: US9683934B2, “Terahertz spectroscopy for predicting stability of amorphous drugs” (Cambridge Enterprise Limited, priority 2013, dated 2017)
# Columns and labels:
# [1] = Glass-transition temperature, Tg; format: physicochemical
# [2] = known from earlier investigations; cited from earlier work
# [3] = Terahertz time-domain spectroscopy (THz-TDS) dielectric losses of polyalcohols, linear fits ε″(T/Tg)=A+BT/Tg; format: physicochemical; conditions: for B3, linear coefficient of ε″(T/Tg)=A+BT/Tg in region (iii) / B1, linear coefficient of ε″(T/Tg)=A+BT/Tg in region (i) / B2, linear coefficient of ε″(T/Tg)=A+BT/Tg in region (ii): 1 THz, brackets = standard deviation at last decimal place; for B3, linear coefficient of ε″(T/Tg)=A+BT/Tg in region (iii): above Tg; for B1, linear coefficient of ε″(T/Tg)=A+BT/Tg in region (i): below about 0.6 Tg; for Tα, crossover point of linear fits from region (ii) to region (iii) / Tβ, crossover point of linear fits from region (i) to region (ii) / Tβ/Tg: dielectric losses at 1 THz; for B2, linear coefficient of ε″(T/Tg)=A+BT/Tg in region (ii): between about 0.6 Tg and Tg
# From the text: In these examples, systematic THz-TDS study allows direct access to the complex dielectric function for the frequency range of 0.1-3 THz, over a wide range of temperatures. For these experiments, the samples were melted (except glycerol, which is liquid at room temperature), loaded into a continuous-flow cryostat and cooled at a rate of approximately 25 K·min^−1 to 80 K, followed by subsequent heating by 10 K increments to 310 K. Spectra were acquired using a THz-TDS setup operating in transmission geometry. All four polyalcohols were purchased from Sigma-Aldrich with >99% purity. The samples were used without further purification. […] The solid lines represent linear fits to the data in regions (i) below a transition temperature of about 0.6 Tg, (ii) between the transition temperature and Tg, and (iii), above Tg. The dashed vertical lines highlight the temperatures 0.6Tg and Tg, respectively. Tβ and Tα represent the crossover points (changes in gradient) of the linear fits from region (i) to region (ii), and from region (ii) to region (iii), respectively. […] The temperature dependence of ∈″(v) at v=1 THz is shown in FIG. 6 for all four polyalcohol materials. Here, we use the rescaled temperature T/Tg on the abscissa to compare the common features of the glassy state between the different polyalcohols. Three absorption regimes can be resolved in all samples: (i) temperature-independent losses; ii) a weak temperature dependence of losses below Tg; and iii) a strong temperature dependence of losses above Tg, as proposed previously. More detailed information was extracted by fitting the data points with an empirical linear fit, viz. ∈″(T/Tg)=A+BT/Tg, in each of the respective temperature regions. In Table I, we summarize the crossover temperatures Tβ and Tα between regions (i)-(ii) and (ii)-(iii), respectively, together with the respective gradients B1,2,3 obtained separately for each region, (i), (ii) and (iii). For all samples, Tα corresponds to Tg, the temperature above which the temperature-dependent part of ∈″(v) becomes dominated by the primary dielectric relaxation.
# [4] = Terahertz absorption coefficient of amorphous paracetamol and indomethacin at 1 THz versus T/Tg; format: physicochemical; conditions: transmission
# From the text: FIG. 3 plots the results of the characterisation of these materials. FIG. 3 plots the absorption coefficient for terahertz radiation (α/cm^−1) measured in transmission through the material at 1 THz, against temperature (plotted as T/Tg) for each material. As set out in the Summary of the Invention, the rate of change of the loss of EM radiation with temperature (the gradient of the graph in FIG. 3) may then be assessed, or measured, and as appropriate compared with a predetermined value in order to achieve a quantitative, or relative, characterisation of the stability of the amorphous material as described below. In FIG. 3, the plotted results for indomethacin show two distinct linear regions, firstly a small and constant rate of change, or gradient, for the absorption of the radiation below Tg, and secondly a marked change to a higher rate of change, or gradient, above Tg. By contrast the plotted results for paracetamol show three different linear regions, namely a low rate of change below a transition temperature of about 0.6 Tg, a higher rate of change between 0.6 Tg and Tg, and a still higher rate of change above Tg.
# [5] = cited from earlier work; for stability of the glass (amorphous phase): known from direct measurements of crystallisation during storage; for resistance to crystallisation of the amorphous material below Tg: stored below Tg
# [6] = trehalose/glycerol mixtures by glycerol weight concentration, Table 3
Compound,"Tg [1, 6]","Tg ([1]; polyalcohols, Table 1)","B3, linear coefficient of ε″(T/Tg)=A+BT/Tg in region (iii) [3]","B1, linear coefficient of ε″(T/Tg)=A+BT/Tg in region (i) [3]","Tα, crossover point of linear fits from region (ii) to region (iii) [3]",thermal change in absorption of terahertz radiation between 0.6 Tg-1.0 Tg [4],"B2, linear coefficient of ε″(T/Tg)=A+BT/Tg in region (ii) [3]",stability of the amorphous material indicated by gradient in region (ii) and changes in gradient ([3]; FIG. 5),"Tβ, crossover point of linear fits from region (i) to region (ii) [3]",Tβ/Tg [3],temperature above which the sample recrystallised ([3]; during heating in the THz-TDS run),"fragility index, m [2]",stability of the glass (amorphous phase) [5],resistance to crystallisation of the amorphous material below Tg [5]
"OC[C@H]1O[C@H](O[C@H]2O[C@H](CO)[C@@H](O)[C@H](O)[C@H]2O)[C@H](O)[C@@H](O)[C@@H]1O [0%, trehalose]",115 °C,–,–,–,–,–,–,–,–,–,–,–,–,–
OCC(O)CO [glycerol],-83 °C,-81.4 °C,0.64(1),0.03(1),189 K,–,–,–,–,–,–,57,–,–
CC(=O)Nc1ccc(O)cc1 [paracetamol],–,–,–,–,–,well developed,–,–,–,–,–,–,poor stability,crystallises rather readily
OC[C@@H](O)[C@@H](O)[C@H](O)[C@@H](O)CO [sorbitol],–,-4.8 °C,1.92(5),0.02(2),265 K,–,0.34(2),relatively poor stability,150 K,0.56,–,128,–,–
OC[C@@H](O)[C@H](O)CO [threitol],–,-46.8 °C,0.43(15),0.07(1),228 K,–,0.09(1),–,147 K,0.65,above 250 K,79,–,–

# Continued, in another order:
"Tg [1, 6]","Tg ([1]; polyalcohols, Table 1)","B3, linear coefficient of ε″(T/Tg)=A+BT/Tg in region (iii) [3]","B1, linear coefficient of ε″(T/Tg)=A+BT/Tg in region (i) [3]","Tα, crossover point of linear fits from region (ii) to region (iii) [3]",thermal change in absorption of terahertz radiation between 0.6 Tg-1.0 Tg [4],"B2, linear coefficient of ε″(T/Tg)=A+BT/Tg in region (ii) [3]",stability of the amorphous material indicated by gradient in region (ii) and changes in gradient ([3]; FIG. 5),"Tβ, crossover point of linear fits from region (i) to region (ii) [3]",Tβ/Tg [3],temperature above which the sample recrystallised ([3]; during heating in the THz-TDS run),Compound,"fragility index, m [2]",stability of the glass (amorphous phase) [5],resistance to crystallisation of the amorphous material below Tg [5]
–,–,–,–,–,very low,–,–,–,–,–,COc1ccc2c(c1)c(CC(=O)O)c(C)n2C(=O)c1ccc(Cl)cc1 [indomethacin],–,very good stability,much more stable
–,-25.3 °C,0.82(4),0.06(1),248 K,–,0.13(3),–,167 K,0.68,–,OC[C@@H](O)[C@H](O)[C@@H](O)CO [xylitol],94,–,–
